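Compound exposure: 48 hours, 5 concentrations, 96-well plates. TGI denotes the concentration required for complete inhibition of growth.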 Where a SMILES comes first, the peptide text is derived from it. [ ]: non-standard residue; d: D form. The star is where a group is joined. Bn2Val = CC(C)[C@@H](C(=O)*)N(Cc1ccccc1)Cc1ccccc1; NHPiperonyl = c1cc2c(cc1CN*)OCO2; NMeV = CN[C@H](C(=O)O)C(C)C; dNMeA = CN[C@H](C)C(=O)O
Tests used:
Experiment in all cases: NCI-60 cell line screen, 48 h
MDA-MB-231 breast = tested on: MDA-MB-231 breast
K-562 leukemia = tested on: K-562 leukemia
SW-620 colon = tested on: SW-620 colon
HCT-15 colon = tested on: HCT-15 colon
NCI-H522 lung = tested on: NCI-H522 lung
NCI-H460 lung = tested on: NCI-H460 lung
MDA-MB-435 = tested on: MDA-MB-435
CCRF-CEM leukemia = tested on: CCRF-CEM leukemia
786-0 renal = tested on: 786-0 renal
HL-60(TB) leukemia = tested on: HL-60(TB) leukemia
SNB-75 CNS = tested on: SNB-75 CNS
OVCAR-8 ovarian = tested on: OVCAR-8 ovarian
HT29 colon = tested on: HT29 colon
COLO 205 colon = tested on: COLO 205 colon
UACC-257 melanoma = tested on: UACC-257 melanoma
OVCAR-4 ovarian = tested on: OVCAR-4 ovarian
UACC-62 melanoma = tested on: UACC-62 melanoma
TK-10 renal = tested on: TK-10 renal
MOLT-4 leukemia = tested on: MOLT-4 leukemia

| SMILES | TGI (MDA-MB-231 breast) [µM] | TGI (K-562 leukemia) [µM] | TGI (SW-620 colon) [µM] | TGI (HCT-15 colon) [µM] | TGI (NCI-H522 lung) [µM] | TGI (NCI-H460 lung) [µM] | TGI (MDA-MB-435) [µM] | TGI (CCRF-CEM leukemia) [µM] | TGI (786-0 renal) [µM] | TGI (HL-60(TB) leukemia) [µM] | TGI (SNB-75 CNS) [µM] | TGI (OVCAR-8 ovarian) [µM] | TGI (HT29 colon) [µM] | TGI (COLO 205 colon) [µM] | TGI (UACC-257 melanoma) [µM] | TGI (OVCAR-4 ovarian) [µM] | TGI (UACC-62 melanoma) [µM] | TGI (TK-10 renal) [µM] | TGI (MOLT-4 leukemia) [µM] |
| --- | --- | --- | --- | --- | --- | --- | --- | --- | --- | --- | --- | --- | --- | --- | --- | --- | --- | --- | --- |
| O=C(O)c1[nH]c(=O)[nH]c(=O)c1CN1CCCCC1 | > 100 | > 100 | > 100 | > 100 | > 100 | > 100 | > 100 | > 100 | > 100 | > 100 | > 100 | > 100 | > 100 | > 100 | > 100 | > 100 | > 100 | > 100 |  |
| CC(=O)OC(=C(C#N)C#N)c1nccnc1C(=O)O | > 100 | > 100 | > 100 | > 100 | > 100 | > 100 | > 100 |  | > 100 | > 100 | > 100 | > 100 | > 100 | > 100 | > 100 | > 100 | > 100 |  | > 100 |
| O=S(Nc1ccccc1)c1ccccc1Oc1ccccc1 (stereo not given) | > 100 | > 100 | > 100 | > 100 | > 100 | > 100 | > 100 | > 100 | > 100 | > 100 | > 100 | > 100 | > 100 | > 100 | > 100 |  |  | > 100 | > 100 |
| CC(C)[C@H](NC(=O)[C@H](C(C)C)N(Cc1ccccc1)Cc1ccccc1)C(=O)N(C)[C@H](C(=O)N1CCC[C@H]1C(=O)N(C)[C@H](C)C(=O)NCc1ccc2c(c1)OCO2)C(C)C (Bn2Val-V[NMeV]P[dNMeA]-NHPiperonyl) | > 100 | 54 | > 100 | > 100 | > 100 | > 100 | > 96.4 | 8.72 | > 83.2 | 2.8 |  | > 100 | 9.04 |  | > 100 | > 100 | > 74.2 | > 100 | > 100 |
| C=C1CC(COc2ccc3c(C)c(Cl)c(=O)oc3c2)(c2ccccc2)OC1=O (stereo not given) | 14.4 |  | 2.62 | 5.13 | 3.93 | 23.5 | 7.6 |  | 2.95 | 1.42 | 11.7 | 5.61 | 2.67 | 1.83 | 4.01 | 3.67 | 3.53 | 3.18 |  |
| COc1ccc2c(c1)OCC1=C2Oc2ccccc2C1 | > 100 | > 100 | > 100 | > 100 | 70.2 |  | 84.2 |  | > 100 | > 100 | 42.5 | > 100 | 90 | 49.2 | 87.6 | > 100 | > 100 | > 100 | 85.5 |
| Cc1cccc(-c2cccc(COCc3cccc(-c4cccc(CO)n4)n3)n2)n1 | > 50 | > 50 | > 50 | > 50 | > 50 | > 50 | > 50 |  | > 50 | > 50 | > 50 | > 50 | > 50 | > 50 | > 50 | > 50 | > 50 | > 50 | > 50 |
| CCOC(=O)CC[C@H](NC(=O)c1ccc(CNc2nc3cc(C(F)(F)F)ccc3nc2C(=O)OCC)cc1)C(=O)OCC | > 48.4 | > 100 | > 100 | > 100 | 29.1 | 77.7 | > 100 | > 100 | 18.8 | > 100 | 41.3 | > 100 | > 100 | > 100 | > 100 |  | 43 | 38.5 | > 100 |
| CC(=O)N(C(=O)CC(=O)NNCc1ccccc1Cl)c1ccc(Cl)cc1 | > 10 | > 10 |  | > 10 | > 10 | > 10 | > 10 | > 10 | > 10 | > 10 | > 10 | > 10 | > 10 | > 10 | > 10 | > 10 | > 10 | > 10 | > 10 |
| COC(=O)c1c(O)ccc2c1c1cc3ccccc3c(O)c1n2Cc1ccccc1Cl | > 100 | > 100 |  | 77.1 | 29.5 | 78.4 | 40.3 | > 100 | 54.1 | 74.9 |  | > 100 | 25 | 30.4 | > 100 | 51.1 | 65.4 | > 100 | > 100 |
| O=C(c1ccc(-c2ccccc2)cc1)N(Cc1cccnc1)C(=S)N(Cc1cccnc1)C(=O)c1ccc(-c2ccccc2)cc1 | > 100 | > 100 | > 100 | > 100 | > 100 | > 100 | > 100 | > 100 | > 100 | > 100 |  | > 100 | > 100 | > 100 | > 100 | > 100 | > 100 | > 100 |  |
| CCC(C#N)NCc1ccc(CNC(C#N)CC)cc1 (stereo not given) | > 100 | > 100 | > 100 | > 100 | > 100 | > 100 | > 100 | > 100 | > 100 | > 100 |  | > 100 | > 100 | > 100 | > 100 | > 100 | > 100 | > 100 | > 100 |
| CC1(C)CC(=O)c2c([nH]c(=S)c(C#N)c2-c2ccc(Br)cc2)C1 | > 100 | > 100 | > 100 | > 100 | > 100 | > 100 | > 100 | > 100 | > 100 | > 100 | > 100 | > 100 | > 100 |  | > 100 | > 100 | > 100 | > 100 |  |

Reference: PubChem BioAssay (NCI)
